Source: patent US5457124A, “Carboxylic acid Leukotriene B4 antagonists” (Hoffmann-La Roche Inc., priority 1993, dated 1995)

Key:
LTB4 Receptor = molecular target: T1, LTB4 Receptor (Homo sapiens, UniProt Q15722); experiment: LTB4 Receptor Binding Assay (inhibition of 3H-LTB4 binding, isolated human neutrophils); details: 0.5 nM 3H-LTB4, 45 minutes on ice, Cheng-Prusoff, read-out: Ki, human neutrophil cells (inhibition of 3H-LTB4 binding)
T1 construct: Isolated human neutrophils in Gey's salt solution; endogenous in cells; host or cells: isolated human neutrophils
Protocol: LTB4 Receptor Binding Assay
Binding assays can be performed in microliter wells. Isolated human neutrophils in Gey's salt solution are incubated on ice for 45 minutes with 0.5 nM ^3 H-LTB4 in the presence or absence of test compounds. Assays are terminated by adding 12 ml of ice cold 50 mM Tris buffer (pH 7.4) followed by rapid filtration under vacuum through GF/C filters. Radioactivity is determined by scintillation counting. Non specific binding is defined as the binding not displaced by 100 fold excess of unlabelled LTB4. Specific binding is defined as the difference between total binding and non-specific binding. Non linear analysis of the binding data is performed using LIGAND (Munson and Rodbard, 1980). Ki (Inhibition Constant) values were determined using the Cheng-Prusoff relationship (Cheng and Prusoff, 1973).
When representative compounds of formulas A, B or C of the invention were tested, the results as set forth in Table I and expressed as inhibition of ^3 H-LTB4 binding were obtained.

leukotriene B4 = experiment: Guinea Pig Bronchoconstriction, In Vivo (leukotriene B4 challenge); set-up: species or system guinea pig (Hartley strain); details: 0.1 mg/kg test compound dose p.o., 2 hr prior to leukotriene B4 (200 μg/kg i.v.); propranolol 0.1 mg/kg i.v.; male guinea pigs
Protocol: Guinea Pig Bronchoconstriction, In Vivo
Male guinea pigs (Hartley strain), weighing 300 to 500 g are anesthetized with urethane (2 g/kg) intraperitoneally and a polyethylene cannula is inserted into the jugular vein for drug administration. Tracheal pressure is recorded from a cannula inserted into the trachea and connected to a Gould P231D pressure transducer. After surgical preparation of the animals, a period of time is allowed for pulmonary functions to stabilize. Animals are then paralyzed with succinylcholine (1.2 mg/kg, i.v.) and mechanically respirated (Harvard rodent respirator) at 40 breaths/minute and 2.5 cc tidal volume. The test compound is administered p.o., 2 hr prior to leukotriene B4 administration. Propranolol (0.1 mg/kg) is administered intravenously 5 min prior to leukotriene B4 administration. Animals are then challenged with an intermediate constrictory dose of leukotriene B4 (200 μg/kg), delivered intravenously.
The change (cm H2 O) between pre and peak ventilatory pressure readings is averaged for 6 control and 6 drug treated animals. The percent inhibition is calculated from the formula:
((Control-Drug Treated)/Control)×100
When representative compounds of formulas A, B and C of the invention were utilized as the test compounds, the following results were obtained: […]

T1 sequence (Q15722 whole entry): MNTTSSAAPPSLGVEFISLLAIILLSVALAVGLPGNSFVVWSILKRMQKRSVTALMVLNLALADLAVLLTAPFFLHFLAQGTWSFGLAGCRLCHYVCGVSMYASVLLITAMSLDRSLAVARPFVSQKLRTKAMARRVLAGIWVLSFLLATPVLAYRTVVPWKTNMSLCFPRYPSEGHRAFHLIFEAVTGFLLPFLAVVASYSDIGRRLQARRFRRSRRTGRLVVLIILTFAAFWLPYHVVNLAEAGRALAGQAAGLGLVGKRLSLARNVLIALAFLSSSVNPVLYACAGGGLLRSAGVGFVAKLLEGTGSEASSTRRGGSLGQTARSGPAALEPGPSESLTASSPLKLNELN

| SMILES | Ki (LTB4 Receptor) [nM] | % inhibition (of leukotriene B4-induced bronchoconstriction) (leukotriene B4) [%] |
| --- | --- | --- |
| O=C(O)CCCOc1cccc(CCCCCCOc2ccc3c(c2CCCc2ccccc2)OCCC3=O)c1CCC(=O)O [2-(3-Carboxypropoxy)-6-[6-[[3,4-dihydro-4-oxo-8-(3-phenylpropyl)-2H-1-benzopyran-7-yl]oxy]hexyl]benzenepropanoic Acid] | 1 | 67 |
| O=C(O)CCCOc1cccc(CCCCCCOc2ccc3c(c2CCCc2ccccc2)CCCC3=O)c1CCC(=O)O [2-(3-Carboxypropoxy)-6-[6-[[5,6,7,8-tetrahydro-5-oxo-1-(3-phenylpropyl)-2-naphthalenyl]oxy]hexyl]benzenepropanoic Acid] | 2 | 78 |
| O=C(O)CCCOc1cccc(CCCCCCOc2ccc3c(c2C/C=C/c2ccccc2)CCCC3=O)c1CCC(=O)O [(E)-2-(3-Carboxypropoxy)-6-[6-[[5,6,7,8-tetrahydro-5-oxo-1-(3-phenyl-2-propenyl)-2-naphthalenyl]oxy]hexyl]benzenepropanoic Acid] | 1 | 64 |
